Tests used:
HCT116 MTAP null cells = test: HCT116 MTAP null cell proliferation / viability (CellTiter-Glo, 6 days); assay type: cell-based; conditions: HCT116-MTAP null, 144 h, HCT116 MTAP null cells, 6 days, CellTiter-Glo; read-out: HCT-116 MTAP null IC50
Method in brief: (§1)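 IC50 values derive from sigmoidal dose-response fits, some with Hill slope fixed at −1 and top constrained to 100%, others from 4-parameter logistic models. They reflect CellTiter-Glo viability after 6 days of compound exposure at up to 10 or 50 μM.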

HCT116 WT cells = test: HCT116 WT cell proliferation / viability (CellTiter-Glo, 6 days); assay type: cell-based; conditions: Homo sapiens, HCT-116, 144 h, HCT116 WT cells, 6 days, CellTiter-Glo; read-out: HCT-116 WT IC50
Method in brief: as §1

SMILES	IC50 (HCT116 MTAP null cells)	IC50 (HCT116 WT cells)
CCOc1ccc(CN(C(=O)c2ccc3nc(N)c4c(cnn4C)c3c2)[C@H](C)c2ncccn2)nn1 [Example 758, 4-amino-N-((6-ethoxy-3-pyridazinyl)methyl)-3-methyl-N-((1R)-1-(2-pyrimidinyl)ethyl)-3H-pyrazolo[3,4-c]quinoline-8-carboxamide]	37 nM	658 nM
CCN(C(=O)c1ccc2nc(N)c3c(c2c1)COC3)C(C)(C)c1ccc(C(F)(F)F)cc1 [Example 759, 4-amino-N-ethyl-N-(2-(4-(trifluoromethyl)phenyl)-2-propanyl)-1,3-dihydrofuro[3,4-c]quinoline-8-carboxamide]	6730 nM	11800 nM
CC(C)N(Cc1ccc(C(F)(F)F)cn1)C(=O)c1cc2c(cn1)nc(N)c1ncncc12 [Example 760, 5-amino-N-(2-propanyl)-N-((5-(trifluoromethyl)-2-pyridinyl)methyl)pyrimido[4,5-c][1,7]naphthyridine-9-carboxamide]	743 nM	6100 nM
CC[C@H](c1ccc(C(F)(F)F)cn1)N(CC)C(=O)c1cc2c3c(c(N)nc2cn1)COC3 [Example 761, 4-amino-N-ethyl-N-((1R)-1-(5-(trifluoromethyl)-2-pyridinyl)propyl)-1,3-dihydrofuro[3,4-c][1,7]naphthyridine-8-carboxamide]	305 nM	13600 nM
CCN(C(=O)c1cc2c3c(c(N)nc2cc1F)COC3)[C@H](C)c1ccc(C(F)(F)F)cn1 [Example 762, 4-amino-N-ethyl-7-fluoro-N-((1R)-1-(5-(trifluoromethyl)-2-pyridinyl)ethyl)-1,3-dihydrofuro[3,4-c]quinoline-8-carboxamide]	26 nM	621 nM
CCN(C(=O)c1cc2c3c(c(N)nc2cn1)COC3)[C@H](C)c1ccc(C(F)(F)F)nn1 [Example 763, 4-amino-N-ethyl-N-((1R)-1-(6-(trifluoromethyl)-3-pyridazinyl)ethyl)-1,3-dihydrofuro[3,4-c][1,7]naphthyridine-8-carboxamide]	113 nM	4810 nM
CCOc1ccc(CN(CC2CC2)C(=O)c2cc3c(cc2F)nc(N)c2c3cnn2C)nn1 [Example 765, 4-amino-N-(cyclopropylmethyl)-N-((6-ethoxy-3-pyridazinyl)methyl)-7-fluoro-3-methyl-3H-pyrazolo[3,4-c]quinoline-8-carboxamide]	49 nM	1980 nM
CCOc1ccc(CN(CC2CC2)C(=O)c2ccc3nc(N)c4c(c3c2)CO[C@@H]4C)nn1 [Example 766, (3R)-4-amino-N-(cyclopropylmethyl)-N-((6-ethoxy-3-pyridazinyl)methyl)-3-methyl-1,3-dihydrofuro[3,4-c]quinoline-8-carboxamide]	61 nM	1910 nM
CCN(C(=O)c1cc2c3c(c(N)nc2cn1)COC3)[C@@H](c1ccc(C(F)(F)F)nn1)C1CC1 [Example 767, 4-amino-N-((R)-cyclopropyl(6-(trifluoromethyl)-3-pyridazinyl)methyl)-N-ethyl-1,3-dihydrofuro[3,4-c][1,7]naphthyridine-8-carboxamide]	2270 nM	> 50000 nM
C[C@@H](NC(=O)c1ccc2nc(N)c3c(c2c1)CO[C@@H]3C)c1ccc(C(F)(F)F)cn1 [Example 768, (3R)-4-amino-3-methyl-N-((1R)-1-(5-(trifluoromethyl)-2-pyridinyl)ethyl)-1,3-dihydrofuro[3,4-c]quinoline-8-carboxamide]	4230 nM	> 50000 nM
Cc1ccc(CN(C)C(=O)c2cc3c(cc2F)nc(N)c2cnn(C)c23)nc1 [Example 769, 4-amino-7-fluoro-N,1-dimethyl-N-((5-methyl-2-pyridinyl)methyl)-1H-pyrazolo[4,3-c]quinoline-8-carboxamide]	115 nM	7500 nM
CN(Cc1ccc(F)cn1)C(=O)c1cc2c(cc1F)nc(N)c1cnn(C)c12 [Example 770, 4-amino-7-fluoro-N-((5-fluoro-2-pyridinyl)methyl)-N,1-dimethyl-1H-pyrazolo[4,3-c]quinoline-8-carboxamide]	253 nM	19400 nM

— patent US20240101570A1 (AMGEN INC., priority 2020, published 2024)
